Measurements taken from publication PMC11480411, “Mucosal sugars delineate pyrazine vs pyrazinone autoinducer signaling in Klebsiella oxytoca” (Nature Communications, 2024).
Several values for one entry are separate records, joined by “and”; a condition that tells them apart may be missing. Equal entries are not always repeated.

Tests used:
[1] = tested on: ∆pyr K. oxytoca; assay: RNA-seq of compound-supplemented ∆pyr K. oxytoca; format: cell-based, Klebsiella oxytoca ATCC 8724; conditions: 10 µM
Procedure: A ∆pyr K. oxytoca glycerol stock was streaked onto an LB-Agar plate supplemented with spectinomycin (50 µg/mL) and incubated aerobically at 30°C for 24 h in a stationary incubator. Single colonies were grown for 24 h aerobically in 5 mL of M9 minimal medium supplemented with 5 g/L casamino acids and 0.4% D-galactose at 30 °C and 250 rpm. Each ∆pyr K. oxytoca overnight culture was diluted 1:1000 into fresh medium (5 mL) and incubated aerobically at 30 °C and 250 rpm to mid-exponential growth (OD600 = 0.8). These conditions abrogated both detectable pyrazine and pyrazinone production. At this point, 10 µM of compound in DMSO, were added to the cultures; an equal volume of DMSO was added to cultures without compound as a solvent vehicle control. The cultures were incubated under aerobic conditions with the compounds for one hour at 30 °C and at 250 rpm. After incubation, the cultures were centrifuged, the supernatants were decanted, and the cell pellets were quickly resuspended in 5 mL of Bacterial RNAProtect (Qiagen). The samples were centrifuged again, and the pellets were frozen on dry ice and stored at −80 °C until RNA extraction. The processed cell pellets were thawed on ice and resuspended in 200 µL of lysis buffer (10 mM Tris, 1 mM EDTA, 5 mg/mL lysozyme, 12.5 µg/mL proteinase K [pH 8.0]) and incubated at room temperature for 10 min. The RNA was extracted via the Qiagen RNeasy Mini kit, treated with TURBO DNase in a total volume of 100 µL at room temperature for 30 min, and extracted again using an RNeasy Mini kit. RNA-seq analysis was conducted by the Yale Center for Genome Analysis. Sequences were aligned to the K. oxytoca ATCC 8724 genome (NC_016612.1). Differential expression analysis was performed through DESeq2 and pathway enrichment analysis was performed through the Funage-Pro web-based platform.

[2] = molecular target: T1, HRH2 (Homo sapiens, UniProt P25021); assay: PRESTO-Tango GPCR screen and dose-response; format: cell-based; conditions: for HRH2 dose-response raw reporter signal (Fig. 5b source data): replicate wells
T1 construct: expressed in transfected cells; host or cells: HTLA cells (HEK293 line stably expressing β-arrestin-TEV and tTA-Luciferase)
Procedure: (§1) The PRESTO-Tango analyses were performed as previously published. Briefly, HTLA cells, a HEK293 cell line that stably expresses β-arrestin-TEV and tTA-Luciferase (a kind gift from Gilad Barnea, Brown University), were plated in 96-well tissue culture plates (Eppendorf) in DMEM containing 10% FBS and 1% Penicillin/Streptomycin. One day after plating (after reaching approximately 90% confluence), 200 ng per well GPCR-Tango plasmids[37] in 20 μL DMEM were individually mixed with 400 ng polyethylenimine (Polysciences) in an equal volume of DMEM and incubated for 20 min at room temperature before adding the transfection mixture to the HTLA cells. 16-24 h after transfection, medium was replaced with 180 μL fresh DMEM containing 1% Penicillin/Streptomycin and 10 mM HEPES and 20 μL of 3 or 3-Homo to reach a final concentration of 100 μM. Supernatants were aspirated 20 h after stimulation and 50 μl per well of Bright-Glo solution (Promega) diluted 20-fold with PBS containing 20 mM HEPES was added into each well. After 15 min incubation at room temperature, luminescence was quantified using a Spectramax i3x microplate reader (Molecular Devices). Activation fold for each sample was calculated by dividing relative luminescence units (RLU) for each condition by RLUs from PBS control. Dose response curves of each chemical were performed in a similar way with varying the ligand concentration from 10^−4 M to 10^−15 M.

[3] = molecular target: T2, HRH1 (Homo sapiens, UniProt P35367); assay: PRESTO-Tango GPCR screen and dose-response; format: cell-based; conditions: for HRH1 dose-response raw reporter signal (Fig. 5b source data): replicate wells
T2 construct: expressed in transfected cells; host or cells: HTLA cells (HEK293 line stably expressing β-arrestin-TEV and tTA-Luciferase)
Procedure: as §1

[4] = molecular target: T3, HRH3 (Homo sapiens, UniProt Q9Y5N1); assay: PRESTO-Tango GPCR screen and dose-response; format: cell-based; conditions: for HRH3 dose-response raw reporter signal (Fig. 5b source data): replicate wells
T3 construct: expressed in transfected cells; host or cells: HTLA cells (HEK293 line stably expressing β-arrestin-TEV and tTA-Luciferase)
Procedure: as §1

[5] = molecular target: T4, histamine receptor H4 (HRH4) (Homo sapiens, UniProt Q9H3N8); assay: PRESTO-Tango GPCR screen and dose-response; format: cell-based; conditions: for HRH4 dose-response raw reporter signal (Fig. 5b source data): replicate wells
T4 construct: expressed in transfected cells; host or cells: HTLA cells (HEK293 line stably expressing β-arrestin-TEV and tTA-Luciferase)
Procedure: as §1

T3 sequence (Q9Y5N1 whole entry): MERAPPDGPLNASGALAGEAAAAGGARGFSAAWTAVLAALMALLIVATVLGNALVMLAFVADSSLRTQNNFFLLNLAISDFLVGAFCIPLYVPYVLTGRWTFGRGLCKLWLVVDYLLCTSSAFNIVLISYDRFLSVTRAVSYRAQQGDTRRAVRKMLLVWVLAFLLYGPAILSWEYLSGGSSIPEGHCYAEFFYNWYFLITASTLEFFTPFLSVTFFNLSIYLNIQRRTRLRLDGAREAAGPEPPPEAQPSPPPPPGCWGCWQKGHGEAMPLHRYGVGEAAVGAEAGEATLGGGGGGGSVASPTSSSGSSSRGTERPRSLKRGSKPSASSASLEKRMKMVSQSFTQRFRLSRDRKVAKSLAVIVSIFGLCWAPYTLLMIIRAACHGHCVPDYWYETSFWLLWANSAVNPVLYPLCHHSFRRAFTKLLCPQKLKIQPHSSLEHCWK
T2 sequence (P35367 whole entry): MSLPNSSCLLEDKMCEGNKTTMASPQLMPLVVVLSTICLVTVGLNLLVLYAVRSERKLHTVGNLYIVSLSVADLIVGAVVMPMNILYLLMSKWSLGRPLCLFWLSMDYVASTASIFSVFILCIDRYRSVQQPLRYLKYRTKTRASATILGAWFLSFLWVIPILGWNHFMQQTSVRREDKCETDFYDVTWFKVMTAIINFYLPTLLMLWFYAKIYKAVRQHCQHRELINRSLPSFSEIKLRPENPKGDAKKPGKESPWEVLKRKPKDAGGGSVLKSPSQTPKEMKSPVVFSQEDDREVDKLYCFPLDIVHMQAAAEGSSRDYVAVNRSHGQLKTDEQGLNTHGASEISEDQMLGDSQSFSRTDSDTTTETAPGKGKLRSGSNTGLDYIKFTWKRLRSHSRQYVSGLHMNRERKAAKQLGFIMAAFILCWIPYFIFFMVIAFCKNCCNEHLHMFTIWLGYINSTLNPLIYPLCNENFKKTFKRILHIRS
T4 sequence (Q9H3N8 whole entry): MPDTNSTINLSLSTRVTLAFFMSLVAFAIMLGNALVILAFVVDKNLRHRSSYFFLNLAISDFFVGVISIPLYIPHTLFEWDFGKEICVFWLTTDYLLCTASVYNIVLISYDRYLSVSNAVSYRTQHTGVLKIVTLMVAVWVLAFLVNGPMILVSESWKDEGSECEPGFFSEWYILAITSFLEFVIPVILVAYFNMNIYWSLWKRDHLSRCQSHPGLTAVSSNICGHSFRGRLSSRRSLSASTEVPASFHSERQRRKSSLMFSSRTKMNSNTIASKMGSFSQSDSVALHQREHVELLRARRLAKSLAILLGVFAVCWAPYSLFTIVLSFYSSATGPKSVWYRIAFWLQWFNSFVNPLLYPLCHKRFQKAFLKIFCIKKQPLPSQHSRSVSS
T1 sequence (P25021 whole entry): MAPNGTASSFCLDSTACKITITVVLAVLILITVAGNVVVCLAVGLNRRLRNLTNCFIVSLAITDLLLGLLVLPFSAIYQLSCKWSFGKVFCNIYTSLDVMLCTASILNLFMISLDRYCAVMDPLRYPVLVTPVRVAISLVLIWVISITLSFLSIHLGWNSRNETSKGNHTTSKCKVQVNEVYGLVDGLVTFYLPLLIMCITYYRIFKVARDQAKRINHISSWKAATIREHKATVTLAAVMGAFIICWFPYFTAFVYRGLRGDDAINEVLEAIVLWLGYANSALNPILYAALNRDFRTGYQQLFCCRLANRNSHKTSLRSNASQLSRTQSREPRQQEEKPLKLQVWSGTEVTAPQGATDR

O=C(O)CCc1nc(Cc2ccc(O)cc2)c(CCC(=O)O)nc1Cc1ccc(O)cc1 [compound 6] was tested, and the “number of differentially regulated genes” value ([1]; one hour, vs DMSO, Padj < 0.05, abs(log2FC) > 1) was 201 genes, the “effect on enterobactin BGC transcription” value ([1]; vs DMSO control, RNA-seq) was “increased enterobactin transcription levels” and the “HRH2 dose-response raw reporter signal (Fig. 5b source data)” value (shortened to “HRH2 dose-response raw reporter signal”) ([2]; Log(10)Conc (M) -4) was 68 and 65 and 32. The “HRH2 dose-response raw reporter signal” value ([2]; Log(10)Conc (M) -5) was 50 and 41 and 77, the “HRH2 dose-response raw reporter signal” value ([2]; Log(10)Conc (M) -6) was 59 and 62 and 44 and the “HRH2 dose-response raw reporter signal” value ([2]; Log(10)Conc (M) -7) was 27 and 50 and 35. For the same compound, the “HRH2 dose-response raw reporter signal” value ([2]; Log(10)Conc (M) -8) was 65 and 80 and 47, the “HRH2 dose-response raw reporter signal” value ([2]; Log(10)Conc (M) -9) was 38 and 97 and 71 and the “HRH2 dose-response raw reporter signal” value ([2]; Log(10)Conc (M) -10) was 50 (2×) and 62. For the same compound, the “HRH2 dose-response raw reporter signal” value ([2]; Log(10)Conc (M) -11) was 56 and 27 and 53, the “HRH2 dose-response raw reporter signal” value ([2]; Log(10)Conc (M) -12) was 53 and 35 and 24 and the “HRH2 dose-response raw reporter signal” value ([2]; Log(10)Conc (M) -13) was 59 and 53 and 35. The “HRH2 dose-response raw reporter signal” value ([2]; Log(10)Conc (M) -14) was 71 and 53 (2×), the “HRH2 dose-response raw reporter signal” value ([2]; Log(10)Conc (M) -15) was 29 and 15 and 32 and the “activity towards HRH2” value ([2]; PRESTO-Tango dose-response) was “no activity”. The “HRH1 dose-response raw reporter signal (Fig. 5b source data)” value (“HRH1 dose-response raw reporter signal” for short) ([3]; Log(10)Conc (M) -4) was 49886 and 44465, the “HRH1 dose-response raw reporter signal” value ([3]; Log(10)Conc (M) -5) was 46746 and 44008 and the “HRH1 dose-response raw reporter signal” value ([3]; Log(10)Conc (M) -6) was 46048 and 46004. For the same compound, the “HRH1 dose-response raw reporter signal” value ([3]; Log(10)Conc (M) -7) was 45284 and 44521, the “HRH1 dose-response raw reporter signal” value ([3]; Log(10)Conc (M) -8) was 43675 and 43707 and the “HRH1 dose-response raw reporter signal” value ([3]; Log(10)Conc (M) -9) was 43412 and 43896. The “HRH1 dose-response raw reporter signal” value ([3]; Log(10)Conc (M) -10) was 42790 and 43339, the “HRH1 dose-response raw reporter signal” value ([3]; Log(10)Conc (M) -11) was 45349 and 45281 and the “HRH1 dose-response raw reporter signal” value ([3]; Log(10)Conc (M) -12) was 45812 and 46139. For the same compound, the “HRH1 dose-response raw reporter signal” value ([3]; Log(10)Conc (M) -13) was 46567 and 45803, the “HRH1 dose-response raw reporter signal” value ([3]; Log(10)Conc (M) -14) was 45579 and 46637 and the “HRH1 dose-response raw reporter signal” value ([3]; Log(10)Conc (M) -15) was 40874 and 41360. The “activity towards HRH1” value ([3]; PRESTO-Tango dose-response) was “no activity”, the “HRH3 dose-response raw reporter signal (Fig. 5b source data)” value (“HRH3 dose-response raw reporter signal” below) ([4]; Log(10)Conc (M) -4) was 162 and 59 and 171 and the “HRH3 dose-response raw reporter signal” value ([4]; Log(10)Conc (M) -5) was 94 and 85 and 156. The “HRH3 dose-response raw reporter signal” value ([4]; Log(10)Conc (M) -6) was 136 and 91 and 133, the “HRH3 dose-response raw reporter signal” value ([4]; Log(10)Conc (M) -7) was 124 and 91 and 106 and the “HRH3 dose-response raw reporter signal” value ([4]; Log(10)Conc (M) -8) was 133 and 85 and 109. The “HRH3 dose-response raw reporter signal” value ([4]; Log(10)Conc (M) -9) was 165 and 142 and 209, the “HRH3 dose-response raw reporter signal” value ([4]; Log(10)Conc (M) -10) was 200 and 100 and 109 and the “HRH3 dose-response raw reporter signal” value ([4]; Log(10)Conc (M) -11) was 133 and 100 and 147. For the same compound, the “HRH3 dose-response raw reporter signal” value ([4]; Log(10)Conc (M) -12) was 115 (2×) and 142, the “HRH3 dose-response raw reporter signal” value ([4]; Log(10)Conc (M) -13) was 139 and 91 and 133 and the “HRH3 dose-response raw reporter signal” value ([4]; Log(10)Conc (M) -14) was 127 and 83 and 121. The “HRH3 dose-response raw reporter signal” value ([4]; Log(10)Conc (M) -15) was 112 and 91 and 62, the “activity towards HRH3” value ([4]; PRESTO-Tango dose-response) was “no activity” and the “HRH4 dose-response raw reporter signal (Fig. 5b source data)” value (shortened to “HRH4 dose-response raw reporter signal”) ([5]; Log(10)Conc (M) -5) was 295 and 312. For the same compound, the “HRH4 dose-response raw reporter signal” value ([5]; Log(10)Conc (M) -6) was 348 and 448, the “HRH4 dose-response raw reporter signal” value ([5]; Log(10)Conc (M) -7) was 304 and 348 and the “HRH4 dose-response raw reporter signal” value ([5]; Log(10)Conc (M) -8) was 271 and 366. For the same compound, the “HRH4 dose-response raw reporter signal” value ([5]; Log(10)Conc (M) -9) was 318 and 324, the “HRH4 dose-response raw reporter signal” value ([5]; Log(10)Conc (M) -10) was 271 and 230 and the “HRH4 dose-response raw reporter signal” value ([5]; Log(10)Conc (M) -11) was 342 and 265. For the same compound, the “HRH4 dose-response raw reporter signal” value ([5]; Log(10)Conc (M) -12) was 298 and 248, the “HRH4 dose-response raw reporter signal” value ([5]; Log(10)Conc (M) -13) was 318 and 271 and the “HRH4 dose-response raw reporter signal” value ([5]; Log(10)Conc (M) -14) was 374 and 307. The “HRH4 dose-response raw reporter signal” value ([5]; Log(10)Conc (M) -15) was 242 and 254 and the “activity towards HRH4” value ([5]; PRESTO-Tango dose-response) was “no activity”.
